# Tested on: Splenocytes
# Parameters: species or system CD-1 mice
# Conditions: mouse, in vivo
substance,measurement,value
QS21,cytokine profile,strong and balanced Th1 plus Th2 cytokine profile

# — patent publication US11173207B2 (priority 2016, dated 2021)
